The subject of experiment [1] is STAT6 bla-RA1 cells. Briefly: STAT6 assay (IL-4 stimulated reporter cells). Type of experiment: cell-based. The conditions noted are these: for EC50: interleukin 4 10 ng/mL; for STAT5/STAT6 EC50 ratio (selectivity for STAT6 over STAT5): selectivity for STAT6 over STAT5, from EC50. How it is done: Twenty-five μL of a STAT6 bla-RA1 (Invitrogen # K1243) cell suspension was seeded with a density of 30-40,000 cells/well in 384-well Black View-plates (PerkinElmer #6007460) with clear bottom in assay medium (Opti-MEM (Invitrogen #11058-021)+0.5% heat inactivated fetal bovine Serum (Invitrogen #10082-147)+1% non-essential amino acids (Invitrogen #11140-050)+1% sodium pyruvate (Invitrogen #11360-070)+1% penicillin/streptomycin (Invitrogen #15140-122)); containing 550 ng/mL of CD40 ligand (Invitrogen # PHP0025). The cell plates were incubated overnight in a humidified 37° C. air/CO2 (95%/5%) incubator. The following day, 125 nL of solutions of test compounds and reference compounds were transferred to cell plates using the Labcyte Echo 550 liquid handler. The plates were then incubated for 1 h in a humidified 37° C. air/CO2 (95%/5%) incubator. Hereafter recombinant human interleukin 4 (Invitrogen # PHC0045) were added to the plates also using the Labcyte Echo 550 to a final concentration of 10 ng/mL. The cells were then incubated for 4½-5 h in a humidified 37° C. air/CO2 (95%/5%) incubator. 8 μL of LiveBLAzer substrate mixture (Invitrogen # K1095) were then added to the assay plates, which were incubated overnight at RT. Fluorescence was then measured: Excitation: 405 nm; Emission: 460 nm (green channel), Emission: 535 nm (blue channel). Background was subtracted in both emission channels and the ratio 460/535 nm was calculated for each well.

The target of experiment [2] is JAK3 (Homo sapiens (Human), UniProt P52333). Briefly: JAK3 kinase assay (HTRF). Type of experiment: biochemical. On the procedure:
(§1) Human baculovirus-expressed Janus kinase (JAK) 1, 2, 3 and tyrosin kinase (TYK) 2 were purchased from Carna Biosciences, Inc (#08-144, -045, -046, -147 resp.). All four purified enzymes contain only the catalytic domain. JAK1 (aa 850-1154) and TYK2 (aa 871-1187) are expressed with an N-terminally fused GST-tag, and JAK2 and JAK3 with an N-terminally fused His-tag. Inhibition of phosphorylation of a synthetic peptide was measured in an HTRF-based assay (CisBio #62TKOPEC). First, 75 nL of test compound solution (100% DMSO) was added to a white shallow 384-well plate (NUNC #264706) using a Labcyte ECHO 550 liquid handler. Thereafter, 1 μL of compound dilution buffer (50 mM HEPES, 0.05% bovine serum albumin) and 2 μL of TK solution (TK substrate-biotin in kinase buffer [1× enzymatic buffer from HTRFKinEASE TK kit, 1 mM DTT]) was added. Then, 5 μL kinase-ATP mix (prepared in kinase buffer) was added to the wells and the plates were incubated at RT for 20 (JAK2, 3 and TYK2) to 40 (JAK1) min. For all four kinases a concentration of ATP that corresponded to the Km for ATP was used. The final concentrations of buffers, substrate, kinase and ATP were: JAK1: 50 mM Hepes buffer pH 7.0, 0.01% BSA, 10 mM MgCl2, 1 mM DTT, 7 μM ATP, 50 nM SEB, 1 μM TK Substrate-Biotin and 5 ng/well JAK1; JAK2: 50 mM Hepes buffer pH 7.0, 0.01% BSA, 5 mM MgCl2, 1 mM DTT, 4 μM ATP, 1 μM TK Substrate-Biotin and 0.1 ng/well JAK2; JAK3: 50 mM Hepes buffer pH 7.0, 0.01% BSA, 5 mM MgCl2, 1 mM DTT, 2 μM ATP, 1 μM TK Substrate-Biotin and 0.3 ng/well JAK3; TYK2: 50 mM Hepes buffer pH 7.0, 0.01% BSA, 5 mM MgCl2, 1 mM DTT, 13 μM ATP, 50 nM SEB, 1 μM TK Substrate-Biotin and 0.8 ng/well TYK2. Thereafter, the kinase reaction was stopped by adding 4 μL detection mix (final concentrations: 50 mM Hepes buffer pH 7.0, 0.01% BSA, 0.8 M KF, 20 mM EDTA, 42 nM Streptavidin-XL665 and 1:400 STK Ab Cryptate) and the plates were incubated overnight in the dark. A PerkinElmer Envision reader was used to quantify the HTRF signal using the following filters; 320 nm excitation filter, 665 nm emission filter and a 615 nm 2nd emission filter. A ratio ((665/615)×10^4) was calculated for each well.
For orientation: TR-FRET usually uses a lanthanide donor and a delayed reading to cut background.

For experiment [3], the target named is JAK2 (Homo sapiens (Human), UniProt O60674). Briefly: JAK2 kinase assay (HTRF). Type of experiment: biochemical. Particulars: ATP at Km (4 μM). How it is done: as §1
The target in experiment [4] is TYK2 (Homo sapiens (Human), UniProt P29597). Kind of experiment: TYK2 kinase assay (HTRF). Type of experiment: biochemical. How it is done: as §1
For experiment [5], the target named is JAK1 (Homo sapiens (Human), UniProt P23458). Briefly: JAK1 kinase assay (HTRF). Type of experiment: biochemical. The conditions noted are these: for JAK2/JAK1 ratio / JAK3/JAK1 ratio: ratio of the respective EC50. On the procedure:
as §1

Experiment [6] relates to STAT5 irfl-bla TF1 cells. Briefly: STAT5 assay (EPO stimulated reporter cells). Type of experiment: cell-based. Particulars: Homo sapiens, TF-1; erythropoietin (EPO) 10 ng/mL. How it is done:
Twenty-five μL of a STAT5 irfl-bla TF1 (Invitrogen # K1219) cell suspension was seeded with a density of about 10,000 cells/well in 384-well Black View-plates (PerkinElmer #6007460) with clear bottom in assay medium (Opti-MEM (Invitrogen #11058-021)+0.5% heat inactivated fetal bovine Serum (Invitrogen #10082-147)+1% non-essential amino acids (Invitrogen #11140-050)+1% sodium pyruvate (Invitrogen #11360-070)+1% penicillin/streptomycin (Invitrogen #15140-122)). The cell plates were incubated overnight in a humidified 37° C. air/CO2 (95%/5%) incubator. The following day, 125 nL of solutions of test compounds and reference compounds were transferred to cell plates using the Labcyte Echo 550 liquid handler. The plates were then incubated for 1 h in a humidified 37° C. air/CO2 (95%/5%) incubator. Hereafter recombinant human erythropoietin (EPO) (Invitrogen # PHC9634) was added to the plates also using the Labcyte Echo 550 to a final concentration of 10 ng/mL. The cells were then incubated for 4½-5 h in a humidified 37° C. air/CO2 (95%/5%) incubator. 8 μL of LiveBLAzer substrate mixture (Invitrogen # K1095) were then added to the assay plates, which were then incubated overnight at RT. Fluorescence was then measured: Excitation: 405 nm; Emission: 460 nm (green channel), Emission: 535 nm (blue channel). Background was subtracted in both emission channels and the ratio 460/535 nm was calculated for each well.

Data on six compounds can be found in patent US10703751B2, “Amino-imidazopyridine derivatives as Janus kinase inhibitors and pharmaceutical use thereof” (LEO Pharma A/S, priority 2017, dated 2020).

Like-named read-outs stand apart in the source and are kept apart here.

Chain of JAK2 (O60674 849-1124): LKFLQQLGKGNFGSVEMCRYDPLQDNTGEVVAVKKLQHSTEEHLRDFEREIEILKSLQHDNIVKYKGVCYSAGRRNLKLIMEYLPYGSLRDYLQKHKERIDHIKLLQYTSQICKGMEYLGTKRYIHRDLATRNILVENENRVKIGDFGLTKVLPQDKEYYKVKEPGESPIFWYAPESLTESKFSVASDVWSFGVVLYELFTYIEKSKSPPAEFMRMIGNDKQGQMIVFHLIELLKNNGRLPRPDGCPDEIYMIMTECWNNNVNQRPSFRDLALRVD
Chain of JAK1 (P23458 850-1154): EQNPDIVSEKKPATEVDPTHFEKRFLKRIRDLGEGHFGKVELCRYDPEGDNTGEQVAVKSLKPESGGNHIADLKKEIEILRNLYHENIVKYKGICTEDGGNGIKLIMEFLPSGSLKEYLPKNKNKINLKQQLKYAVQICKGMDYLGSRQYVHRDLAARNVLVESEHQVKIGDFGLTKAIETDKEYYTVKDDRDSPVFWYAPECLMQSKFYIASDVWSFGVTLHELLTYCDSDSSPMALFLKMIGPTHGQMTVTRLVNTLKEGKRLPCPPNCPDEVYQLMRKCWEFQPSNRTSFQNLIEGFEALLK
Chain of JAK3 (P52333 822-1111): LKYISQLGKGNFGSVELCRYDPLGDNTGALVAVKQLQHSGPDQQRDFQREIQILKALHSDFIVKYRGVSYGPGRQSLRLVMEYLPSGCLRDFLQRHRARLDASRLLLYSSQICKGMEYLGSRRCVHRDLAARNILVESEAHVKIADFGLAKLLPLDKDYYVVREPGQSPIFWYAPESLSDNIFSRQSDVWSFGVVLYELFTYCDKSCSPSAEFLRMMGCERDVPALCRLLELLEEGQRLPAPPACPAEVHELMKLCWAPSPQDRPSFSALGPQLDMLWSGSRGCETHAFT
Chain of TYK2 (P29597 871-1187): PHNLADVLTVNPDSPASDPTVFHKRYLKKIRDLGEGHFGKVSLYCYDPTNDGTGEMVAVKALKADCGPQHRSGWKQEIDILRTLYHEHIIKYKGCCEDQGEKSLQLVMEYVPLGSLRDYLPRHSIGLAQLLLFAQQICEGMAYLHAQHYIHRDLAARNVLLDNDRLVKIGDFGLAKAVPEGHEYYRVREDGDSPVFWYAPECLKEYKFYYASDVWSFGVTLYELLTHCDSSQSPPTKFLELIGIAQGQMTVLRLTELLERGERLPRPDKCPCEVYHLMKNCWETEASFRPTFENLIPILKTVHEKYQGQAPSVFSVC

Take `CNc1cc2c(cn1)nc([C@H](C)O)n2[C@H]1CC[C@H](CC#N)CC1` [Example 2, trans-2-[4-[2-[(1S)-1-Hydroxyethyl]-6-(methylamino)imidazo[4,5-c]pyridin-1-yl]cyclo-hexyl]acetonitrile]: the EC50 (usually the concentration needed to bring the measured effect to its halfway point) in experiment [1] was 1160 nM; in experiment [2], 9820 nM; in experiment [3] it was 1130 nM; in experiment [4], 466 nM; in experiment [5] it was 44.4 nM; in experiment [6] it was above 42600 nM. Besides, the “STAT5/STAT6 EC50 ratio (selectivity for STAT6 over STAT5)” value in experiment [1] is listed as above 37. Besides, in experiment [5], the JAK2/JAK1 ratio was determined as 25. The JAK3/JAK1 ratio in experiment [5] is 221.

Take `[2H]C([2H])([2H])Nc1cc2c(cn1)nc([C@@H](C)O)n2[C@H]1CC[C@H](CC#N)CC1` [Example 4, trans-2-[4-[2-[(1R)-1-Hydroxyethyl]-6-(trideuteriomethylamino)imidazo[4,5-c]pyridin-1-yl]cyclohexyl]acetonitrile]: the EC50 in experiment [1] was 141 nM; in experiment [2], 2310 nM; in experiment [3], 153 nM; in experiment [4] it was 43 nM; in experiment [5], 3.46 nM; in experiment [6], 7080 nM. Further, the “STAT5/STAT6 EC50 ratio (selectivity for STAT6 over STAT5)” value in experiment [1] stood at 50. In experiment [5], the JAK2/JAK1 ratio stood at 44. Besides, the JAK3/JAK1 ratio in experiment [5] is 668.

With `CNc1cc2c(cn1)nc([C@@H](C)O)n2[C@H]1CC[C@@H](CC#N)CC1` [Example 7, cis-2-[4-[2-[(1R)-1-Hydroxyethyl]-6-(methylamino)imidazo[4,5-c]pyridin-1-yl]cyclohexyl]acetonitrile], the half-maximal effective concentration (EC50) in experiment [1] was 3460 nM; in experiment [2] (ATP at Km (2 μM)) it was 1010 nM; in experiment [3], 981 nM; in experiment [4] (ATP at Km (13 μM)) it was 443 nM; in experiment [5] (ATP at Km (7 μM)) it was 129 nM; in experiment [6], above 49800 nM. Besides, the “STAT5/STAT6 EC50 ratio (selectivity for STAT6 over STAT5)” value in experiment [1] is above 14. The JAK2/JAK1 ratio in experiment [5] is on record as 7.6. Also, in experiment [5], the JAK3/JAK1 ratio worked out at 7.8.

Turning to `CNc1cc2c(cn1)nc(C(C)O)n2[C@H]1CC[C@@H](CC#N)CC1` (stereo partly drawn) [Example 6, cis-2-[4-[2-[1-Hydroxyethyl]-6-(methylamino)imidazo[4,5-c]pyridin-1-yl]cyclohexyl]acetonitrile], the 50% effective concentration (EC50) in experiment [1] was 8570 nM; in experiment [2] (ATP at Km (2 μM)), 2870 nM; in experiment [3], 2640 nM; in experiment [4] (ATP at Km (13 μM)), 1110 nM; in experiment [5] (ATP at Km (7 μM)) it was 508 nM; in experiment [6] it was above 49800 nM. In experiment [1], the “STAT5/STAT6 EC50 ratio (selectivity for STAT6 over STAT5)” value is on record as above 5.8. In addition, in experiment [5], the JAK2/JAK1 ratio was determined as 5.2. Also, the JAK3/JAK1 ratio in experiment [5] was 5.6.

For the compound `CNc1cc2c(cn1)nc(C(C)O)n2[C@H]1CC[C@H](CC#N)CC1` (stereo partly drawn) [Example 1, trans-2-[4-[2-[1-Hydroxyethyl]-6-(methylamino)imidazo[4,5-c]pyridin-1-yl]cyclohexyl]acetonitrile], the EC50 in experiment [1] worked out at 237 nM; in experiment [2] (ATP at Km (2 μM)) it was 5260 nM; in experiment [3] it was 530 nM; in experiment [4] (ATP at Km (13 μM)) it was 111 nM; in experiment [5] (ATP at Km (7 μM)), 10.8 nM; in experiment [6] it was 14600 nM. In addition, the “STAT5/STAT6 EC50 ratio (selectivity for STAT6 over STAT5)” value in experiment [1] turned out to be 62. Moreover, in experiment [5], the JAK2/JAK1 ratio came to 49. The JAK3/JAK1 ratio in experiment [5] was 487.

As for `[2H]C([2H])([2H])C([2H])(O)c1nc2cnc(NC)cc2n1[C@H]1CC[C@H](CC#N)CC1` (stereo partly drawn) [Example 5, trans-2-[4-[2-[1,2,2,2-Tetradeuterio-1-hydroxyethyl]-6-(methylamino)imidazo[4,5-c]pyridin-1-yl]cyclohexyl]acetonitrile], the EC50 in experiment [1] stood at 270 nM; in experiment [2], 3200 nM; in experiment [3], 301 nM; in experiment [4], 102 nM; in experiment [5] it was 8.41 nM; in experiment [6], 9240 nM. For the same compound, the “STAT5/STAT6 EC50 ratio (selectivity for STAT6 over STAT5)” value in experiment [1] is given as 34. In addition, the JAK2/JAK1 ratio in experiment [5] is recorded as 36. Besides, the JAK3/JAK1 ratio in experiment [5] was 380.
